Measured values as given in US20240117334A1, “FACTOR B PROTEASES” (Vertex Pharmaceuticals Incorporated, priority 2021, published 2024).

Columns and labels:
Format in all cases: biochemical
[1] = tested on: 20% Normal Human Serum, rabbit red blood cells; experiment: Standard Alternative Pathway (AP) RBC hemolysis assay; parameters: unit of the concentration uncertain
Procedure: (§1) Percent lysis was calculated using the following formula: [(OD415 of sample−OD415 EDTA negative control)/(OD415 saline positive control-OD415 EDTA)*100 ] (Table 17A and Table 17B). IC50s were calculated by nonlinear regression (Prism 9, log(inhibitor,bv) vs. response-4 parameter variable slope model) (Table 18A and Table 18B).

[2] = tested on: human Factor B depleted sera with Factor B, rabbit red blood cells; experiment: Enhanced AP RBC hemolysis assay (Factor B depleted sera with Factor B spiked back); parameters: unit of the concentration uncertain
Procedure: as §1

Human Factor B [3] = target: T1, Human Factor B (Homo sapiens, UniProt P00751); experiment: Factor B cleavage by KLK5, Factor B ELISA; details: 4 μM Factor B, 1 hour at 37° C., two stocks
T1 sequence (P00751 26-764): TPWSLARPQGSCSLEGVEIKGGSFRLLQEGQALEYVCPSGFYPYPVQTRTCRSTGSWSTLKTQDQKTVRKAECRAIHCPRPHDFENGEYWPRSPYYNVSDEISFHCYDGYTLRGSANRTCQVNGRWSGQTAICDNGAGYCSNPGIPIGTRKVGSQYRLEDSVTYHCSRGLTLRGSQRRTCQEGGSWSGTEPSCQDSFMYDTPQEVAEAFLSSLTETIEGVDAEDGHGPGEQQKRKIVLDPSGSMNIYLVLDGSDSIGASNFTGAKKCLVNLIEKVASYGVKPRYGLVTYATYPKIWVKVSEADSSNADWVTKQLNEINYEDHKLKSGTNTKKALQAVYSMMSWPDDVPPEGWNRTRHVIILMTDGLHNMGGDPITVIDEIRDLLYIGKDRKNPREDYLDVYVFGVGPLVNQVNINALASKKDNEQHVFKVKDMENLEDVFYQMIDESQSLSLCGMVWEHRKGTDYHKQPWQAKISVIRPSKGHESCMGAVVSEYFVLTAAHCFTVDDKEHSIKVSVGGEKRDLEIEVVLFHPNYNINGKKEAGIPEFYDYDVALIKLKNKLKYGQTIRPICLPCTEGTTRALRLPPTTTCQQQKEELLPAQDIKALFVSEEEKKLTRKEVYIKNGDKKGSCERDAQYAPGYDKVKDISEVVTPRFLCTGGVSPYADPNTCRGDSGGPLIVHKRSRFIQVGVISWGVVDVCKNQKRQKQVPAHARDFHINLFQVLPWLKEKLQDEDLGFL
Procedure: FIG. 7B depicts a graph showing Factor B cleavage with KLK5 and a chymase-based engineered protease C22S/F173Y/D175N/A226R. Briefly, A digestion reaction is prepared with 4.0 uM of Human Factor B (Complement Technologies) in 20 μL buffer (50 mM Tris pH 7.4/50 mM NaCl/0.01% Tween 20). Different concentrations of KLK5 (400, 200, 100, 50, 25, 12.5, 6.25, 3.125, 1.56, 0.78, and 0.39 with a control at 0.0 nM) are added to 4 μM of factor B and incubated for 1 hour at 37° C. After digestion, 15 μL of the reaction is transferred to a 96 well plate with 1.5 μL of 0.2N HCL. After quenching, the reactions are prepared factor B ELISA.
A Factor B standard curve is made with 800, 533.3, 355.5, 237.0, 158.0, 105.3, 70.2, 46.8, 31.2, 20.8, 0.0 pM in 1% BSA-PBST. A 384 well plate was coated with the monoclonal antibody against human Factor Ba (#A225, Quidel) at 2 μg/mL in carbonate buffer (25 μL/well). […]
The biotinylated monoclonal antibody against human Factor Bb (Quidel) was then added at 0.125 μg/ml to detect the bound Factor B. Streptavidin-HRP was then diluted at 1:200 in blocking buffer (25 μL/well) and the plate was agitated for 30 minutes at room temperature. The plate was developed with ELISABright, (50 μL/well) for 1 minute at room temperature and read in the EnVision plate reader. […]

Human Factor B [4] = target: T1, Human Factor B; experiment: Mass spectrometry identification of Factor B cleavage sites
Procedure: FIG. 9 depicts mass spectrometry (MS) data identifying the cleavage site at 234 Arg within the QQKR/KIV (SEQ ID NO: 9) cleavage site of Factor B by KLK5, and identifying the cleavage site at ^221Asp within the EGVDAE (SEQ ID NO: 13) cleavage site of Factor B by the chymase-based engineered protease C22S/A226R. Briefly, human Factor B (Comptech) was incubated at 2 μM with different concentration of Kallikrein 5 (KLK5, R&D Systems) or the chymase-based engineered protease C22S/A226R at 10 nM or 100 pM for 10 minutes to 1 hour at 37° C. in 20 mM Tris pH 8 buffer with 16-0 or 18-0 water. The reaction was quenched with 20 μM of inhibitor FFR-CMK for 30 minutes at room temperature. Half of the sample was further treated with Rapidgest/chymotrypsin and adjusted to pH 3 by the addition of […] 1% TFA. TCEP (100 mM final concentration) was then added to reduce disulfides for 30 minutes at 37° C. […] of each sample was bound to a Ziptip (Millipore) and eluted with […] 80% ACN-0.1% TFA. After drying in a Speedvac, the samples were re-dissolved in […] of 30% ACN-0.05% TFA. 0.35 mL of the sample was loaded with 0.45 mL of CHCA matrix (10 mg/mL) onto an OptiPlate, and analyzed by MALDI-MS (ABI 4700) in both linear (m/z 2-22k) and reflector (m/z 1500-5400) mode. The tandem MS was carried out on peptides of interest when possible. Two large peptide fragments were detected at […] and 59 kDa. In summary, 100 pM KLK5 cleaves at 1 of 38 Arg in a 10 minute reaction and in 4 out of 38 Arg in a 60 minute reaction (Arg175, Arg193, Arg730 and Arg739). At 10 nM, cleavage was detected in […] in 10 and 60 minute reactions (Arg50, Arg74, Arg94, Arg175, Arg182, Arg193, Arg202, Arg203, Arg259, Arg381, Arg415, Arg658, Arg679, Arg708, Arg710, Arg730, Arg739). The earliest cleavage event was at Arg 730.
The reconstructed ion chromatograms shown in FIG. 9 are of reaction products from Kallikrein-5 (“KLK”), the chymase-based engineered protease C22S/A226R (“chymase-based”), and plasma derived-Factor B (“Fb control”). […] In contrast, KLK5 cleaves Factor B at ^234 Arg (peak at 4.69 minutes, MW 61437).

[5] = tested on: Human Factor B digests in human Factor B Depleted Serum, rabbit red blood cells; experiment: Hemolysis assay with Factor B digests (KLK5 and chymase-based protease); details: 4 μM Factor B digested 1 hour at 37° C., 15% serum
Procedure: FIG. 7A depicts a graph showing hemolysis inhibition by KLK5 and compared with a chymase-based engineered protease C22S/F173Y/D175N/A226R. All references in this Example to engineered proteases are depicted in chymotrypsin numbering. The chymotrypsin numbering key for the modified protease domains of engineered proteases are found in Tables 2, 4, and 6 for uPA, MTSP-1, and chymase, respectively. Briefly, a digestion reaction was prepared with 4.0 μM of Human Factor B (Complement Technologies) in 20 μL buffer (50 mM Tris pH 7.4/50 mM NaCl/0.01% Tween 20). Different concentration of the KLK5 protease or the chymase-based engineered protease C22S/F173Y/D175N/A226R (400, 200, 100, 50, 25, 12.5, 6.25, 3.125, 1.56, 0.78, and 0.39 with a control at 0.0 nM) were added to 4 μM of Factor B and incubated for 1 hour at 37° C. After digestion, 6 μL of the reaction was evaluated in a hemolysis assay.
The Factor B digestion reactions were diluted in 20 μL of GVB (Complement Technologies), 10 mM MgCl2 and 8 mM EGTA (GVB/Mg/EGTA). 45 μL of human Factor B Depleted Serum (Complement Technologies) was then added to 5 μL of human Factor B digests to obtain a final volume of 90% serum. In parallel, 50 μL of rabbit red blood cells (Colorado Serum Co.) were diluted into 950 μL of GVB/Mg/EGTA and mixed gently. […] The plate absorbance was read at 415 nm with a spectrophotometer and the EC50 was calculated.

[6] = concentration 0.33 (unit uncertain)
[7] = concentration 1 (unit uncertain)
[8] = concentration 3 (unit uncertain)
[9] = concentration 10 (unit uncertain)

cleavage of Factor B (ELISA) (Human Factor B [3]) | earliest cleavage event (Human Factor B [4]) | remaining intact Factor B (reconstructed ion chromatogram) (Human Factor B [4]) | number of Arg of Factor B cleaved (Human Factor B [4]; 100 pM, 10 minute reaction) | number of Arg of Factor B cleaved (Human Factor B [4]; 100 pM, 60 minute reaction) | number of Arg of Factor B cleaved (Human Factor B [4]; 10 nM, 10 and 60 minute reactions) | Compound | % Hemolysis [1, 6] | % Hemolysis [1, 7] | % Hemolysis [1, 8] | % Hemolysis [1, 9] | % Hemolysis [2, 6] | % Hemolysis [2, 7] | % Hemolysis [2, 8] | % Hemolysis [2, 9] | inhibition of hemolysis [5]
 |  |  |  |  |  | CCO[C@H]1CCN(Cc2c(OC)cc(C)c3[nH]ccc23)[C@H](c2ccc(C(=O)O)cc2)C1 [LNP023] | 0% | 1.16% | 0% | 0% | 102.50% | 108.48% | 33.94% | 0% | 
effective in cleavage Factor B | Arg 730 | No remaining intact Factor B | 1 of 38 | 4 out of 38 | 18 of 38 | KLK5: Kallikrein-related peptidase 5 protease (R&D Systems) |  |  |  |  |  |  |  |  | effective in inhibition of hemolysis
